The record followed here is ChEMBL document CHEMBL1201862, “PubChem BioAssay data set” (2004).

The source made the active and inactive calls.

In experiment [1] the target is DNA dC->dU-editing enzyme APOBEC-3G (Homo sapiens, UniProt Q9HC16). In words: inhibition of APOBEC3G ssDNA deamination – biochemical, fluorescence, single-stranded DNA substrate, SAR follow-up (AID 602136). The class given is functional. To be noted: read-out: IC50_Mean.
Experiment [2] deals with DNA dC->dU-editing enzyme APOBEC-3A (Homo sapiens, UniProt P31941). In words: SAR analysis of small molecule inhibitors of APOBEC3A DNA Deaminase via a fluorescence-based single-stranded DNA deaminase assay. The class given is functional. To be noted: read-out: IC50_Mean.
Experiment [3] addresses T1, Protein disulfide-isomerase (Homo sapiens, UniProt P07237). Nature of the experiment: inhibition of PDI-driven insulin aggregation – biochemical, turbidity, absorbance, cherry-picked samples, dose response (AID 602350). The class given is functional.
Experiment [4] addresses T1, Protein disulfide-isomerase. In words: inhibition of PDI-mediated insulin reduction – biochemical, turbidity, absorbance, cherry-picked samples, set 2, dose response (AID 624274). It counts as functional.
The nature of experiment [5]: THP-1 cell cytotoxicity, dose response, cytotoxicity control, set 3 (AID 504852). The class given is functional. To be noted: Mycobacterium tuberculosis.
Experiment [6] can be described thus: Vero cell cytotoxicity, cytotoxicity control for M. tuberculosis inhibitor project, purified and synthesized samples, set 3 (AID 504684). It counts as functional. To be noted: […].
The nature of experiment [7]: THP-1 cell cytotoxicity, cytotoxicity control, set 4 (AID 504911). The class given is functional. To be noted: Mycobacterium tuberculosis.
Experiment [8] concerns the target Sphingosine 1-phosphate receptor 3 (Homo sapiens, UniProt Q99500). In words: Late-stage fluorescence-based dose-response cell-based counterscreen assay to identify agonists of the Sphingosine 1-Phosphate Receptor 4 (S1P4): Sphingosine 1-Phosphate Receptor 3 (S1P3) agonist assay Set 2. It counts as functional.
Experiment [9] has as its target Sphingosine 1-phosphate receptor 1 (Homo sapiens, UniProt P21453). In words: Late-stage fluorescence-based dose-response cell-based counterscreen assay to identify agonists of the Sphingosine 1-Phosphate Receptor 4 (S1P4): Sphingosine 1-Phosphate Receptor 1 (S1P1) agonist assay Set 2. It counts as functional. On the technique in general: The purpose of a counterscreen is to sort out artefacts and off-target activity.

Experiment [10] addresses Sphingosine 1-phosphate receptor 5 (Homo sapiens, UniProt Q9H228). In words: activation of human S1P5 receptor – cell-based, fluorescence, set 2, counter-screen for S1P4 agonist project, late-stage follow-up (AID 504867). It counts as functional.
Experiment [11] has as its target Sphingosine 1-phosphate receptor 2 (Homo sapiens, UniProt O95136). In words: activation of human S1P2 receptor – cell-based, fluorescence, set 2, counter-screen for S1P4 agonist project, late-stage follow-up (AID 504873). The class given is functional.
The subject of a further experiment is NIH3T3. In words: mammalian cell viability counter-check – Alamar Blue, fluconazole, dry powder, cytotoxicity control for antifungal drug resistance project, dose response (AID 488809). It counts as functional, cell-based. The note with it: Mus musculus.
For experiment [12], the system named is Candida albicans. Nature of the experiment: Candida growth effect without fluconazole – C. albicans CaCi-2, dry powder, counter-screen for antifungal drug resistance project, dose response (AID 488802). The class given is functional, organism-based.
The test system of experiment [13] is Candida albicans. In words: antifungal activity against resistant Candida strain – CaCi-8, fluconazole, Alamar Blue, dry powder, dose response (AID 488807). The class given is functional, organism-based.
The test system of experiment [14] is Candida albicans. In words: C. albicans growth inhibition with fluconazole – CaCi-2 strain, Alamar Blue, dry powder, set 4, dose response (AID 488943). It counts as functional, organism-based. For orientation: Alamar Blue is a resazurin reagent that responds to reducing activity.
In experiment [15] the test system is Candida albicans. Nature of the experiment: fluconazole-resistant Candida strain growth inhibitors – CaCi-8 strain, dry powder, set 4, dose response (AID 488950). It counts as functional, organism-based.
Experiment [16] deals with T2, Caspase-3 (Homo sapiens, UniProt P42574).
T2 sequence (P42574 whole entry): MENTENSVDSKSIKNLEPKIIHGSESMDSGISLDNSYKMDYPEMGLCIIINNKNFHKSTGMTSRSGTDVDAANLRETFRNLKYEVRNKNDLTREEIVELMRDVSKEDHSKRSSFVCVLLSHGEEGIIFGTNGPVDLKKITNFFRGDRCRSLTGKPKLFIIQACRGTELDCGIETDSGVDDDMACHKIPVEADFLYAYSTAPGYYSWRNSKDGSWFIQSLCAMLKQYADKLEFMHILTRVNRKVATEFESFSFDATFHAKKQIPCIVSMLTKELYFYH
Nature of the experiment: SAR Analysis of small molecule inhibitors of Sentrin-specific proteases (SENPs) using a Caspase-3 Selectivity assay. [Related pubchem assays (depositor defined):AID2540, AID2599, AID434973, AID489001]. It counts as functional.

The target in experiment [17] is T3, Sentrin-specific protease 6 (Homo sapiens, UniProt Q9GZR1).
T3 sequence (Q9GZR1 whole entry): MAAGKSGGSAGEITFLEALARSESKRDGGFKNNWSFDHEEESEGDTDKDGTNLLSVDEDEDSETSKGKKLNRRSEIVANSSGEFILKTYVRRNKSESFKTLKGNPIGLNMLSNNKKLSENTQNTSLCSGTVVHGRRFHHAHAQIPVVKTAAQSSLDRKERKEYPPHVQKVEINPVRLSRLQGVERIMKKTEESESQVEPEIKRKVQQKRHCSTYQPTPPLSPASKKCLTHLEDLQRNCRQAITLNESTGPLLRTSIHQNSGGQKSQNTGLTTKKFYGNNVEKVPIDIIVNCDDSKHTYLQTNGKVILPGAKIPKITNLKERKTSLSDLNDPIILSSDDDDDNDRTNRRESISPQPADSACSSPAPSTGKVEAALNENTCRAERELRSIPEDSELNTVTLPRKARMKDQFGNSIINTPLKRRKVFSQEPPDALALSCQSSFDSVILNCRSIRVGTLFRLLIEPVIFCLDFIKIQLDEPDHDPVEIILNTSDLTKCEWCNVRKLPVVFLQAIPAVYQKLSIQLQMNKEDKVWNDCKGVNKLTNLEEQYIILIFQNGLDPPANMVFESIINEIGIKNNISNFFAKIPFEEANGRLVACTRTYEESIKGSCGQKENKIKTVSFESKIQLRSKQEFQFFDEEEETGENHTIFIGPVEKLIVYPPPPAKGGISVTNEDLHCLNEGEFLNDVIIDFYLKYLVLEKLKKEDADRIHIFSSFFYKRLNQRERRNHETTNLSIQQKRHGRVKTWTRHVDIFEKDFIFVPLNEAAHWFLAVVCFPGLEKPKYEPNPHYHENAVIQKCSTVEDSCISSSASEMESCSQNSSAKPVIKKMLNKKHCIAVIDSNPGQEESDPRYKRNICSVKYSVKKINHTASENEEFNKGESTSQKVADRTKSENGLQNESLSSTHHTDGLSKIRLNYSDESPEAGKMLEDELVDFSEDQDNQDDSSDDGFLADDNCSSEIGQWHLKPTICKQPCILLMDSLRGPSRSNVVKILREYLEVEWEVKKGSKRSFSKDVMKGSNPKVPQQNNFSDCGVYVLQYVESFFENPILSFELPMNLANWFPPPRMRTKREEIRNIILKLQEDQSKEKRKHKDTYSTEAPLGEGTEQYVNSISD
Nature of the experiment: SAR Analysis of small molecule inhibitors of Sentrin-specific protease 6 (SENP6) using a Luminescent assay. [Related pubchem assays (depositor defined):AID2582, AID2599]. The class given is functional.

Experiment [18] addresses T2, Caspase-3. Nature of the experiment: inhibition of recombinant caspase-3 activity – biochemical, luminescence, set 2, selectivity assay for SENP protease inhibitor project, SAR follow-up (AID 588599). It counts as functional.
For experiment [19], the target named is T3, Sentrin-specific protease 6. In words: inhibition of human SENP6 catalytic domain – biochemical, luminescence, set 2, SAR follow-up (AID 588598). It counts as functional.
In experiment [20] the target is T4, Sentrin-specific protease 8 (Homo sapiens, UniProt Q96LD8).
T4 sequence (Q96LD8 whole entry): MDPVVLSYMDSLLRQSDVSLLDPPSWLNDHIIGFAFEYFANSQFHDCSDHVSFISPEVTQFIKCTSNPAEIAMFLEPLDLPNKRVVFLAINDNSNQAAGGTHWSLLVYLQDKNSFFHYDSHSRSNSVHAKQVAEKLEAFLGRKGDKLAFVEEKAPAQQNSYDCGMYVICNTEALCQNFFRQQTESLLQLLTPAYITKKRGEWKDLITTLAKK
In words: inhibition of sentrin protease 8 – biochemical, luminescence, set 2, SAR follow-up (AID 588601). The class given is functional.

Experiment [21] deals with T4, Sentrin-specific protease 8. In words: inhibition of human SENP8 cleavage activity – biochemical, luminescence, SAR follow-up (AID 504501). The class given is functional.
Experiment [22] deals with T5, Sentrin-specific protease 7 (Homo sapiens, UniProt Q9BQF6).
T5 sequence (Q9BQF6 whole entry): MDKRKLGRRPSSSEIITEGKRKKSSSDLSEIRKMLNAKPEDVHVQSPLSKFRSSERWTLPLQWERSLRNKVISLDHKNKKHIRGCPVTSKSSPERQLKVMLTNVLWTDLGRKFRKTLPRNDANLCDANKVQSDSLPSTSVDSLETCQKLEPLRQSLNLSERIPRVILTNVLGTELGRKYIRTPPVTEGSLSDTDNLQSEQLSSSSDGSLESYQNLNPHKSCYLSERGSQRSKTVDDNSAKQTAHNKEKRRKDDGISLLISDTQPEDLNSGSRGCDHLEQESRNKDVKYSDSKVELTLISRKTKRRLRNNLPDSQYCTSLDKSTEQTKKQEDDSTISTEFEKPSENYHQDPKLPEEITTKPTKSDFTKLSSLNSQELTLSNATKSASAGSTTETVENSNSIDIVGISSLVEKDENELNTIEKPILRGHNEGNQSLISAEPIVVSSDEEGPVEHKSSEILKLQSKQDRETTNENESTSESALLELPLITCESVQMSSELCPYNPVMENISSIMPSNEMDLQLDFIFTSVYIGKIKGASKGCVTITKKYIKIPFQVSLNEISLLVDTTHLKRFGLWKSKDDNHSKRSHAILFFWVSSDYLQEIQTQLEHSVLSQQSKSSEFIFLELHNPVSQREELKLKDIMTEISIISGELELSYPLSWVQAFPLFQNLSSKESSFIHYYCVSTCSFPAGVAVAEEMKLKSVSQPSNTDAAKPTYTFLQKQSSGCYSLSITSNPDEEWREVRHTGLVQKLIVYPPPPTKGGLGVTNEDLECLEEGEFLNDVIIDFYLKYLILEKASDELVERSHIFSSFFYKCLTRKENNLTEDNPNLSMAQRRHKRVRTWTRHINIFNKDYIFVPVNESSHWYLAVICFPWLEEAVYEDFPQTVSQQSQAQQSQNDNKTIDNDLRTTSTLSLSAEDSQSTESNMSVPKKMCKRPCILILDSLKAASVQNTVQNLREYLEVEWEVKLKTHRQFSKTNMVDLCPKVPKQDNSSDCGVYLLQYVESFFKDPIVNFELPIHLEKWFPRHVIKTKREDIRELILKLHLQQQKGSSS
Nature of the experiment: inhibition of human SENP7 cleavage activity – biochemical, luminescence, SAR follow-up (AID 504497). It counts as functional.

The target in experiment [23] is T5, Sentrin-specific protease 7. In words: inhibition of human SENP7 cleavage activity – biochemical, luminescence, set 2, SAR follow-up (AID 588600). The class given is functional.

T1 sequence (P07237 whole entry): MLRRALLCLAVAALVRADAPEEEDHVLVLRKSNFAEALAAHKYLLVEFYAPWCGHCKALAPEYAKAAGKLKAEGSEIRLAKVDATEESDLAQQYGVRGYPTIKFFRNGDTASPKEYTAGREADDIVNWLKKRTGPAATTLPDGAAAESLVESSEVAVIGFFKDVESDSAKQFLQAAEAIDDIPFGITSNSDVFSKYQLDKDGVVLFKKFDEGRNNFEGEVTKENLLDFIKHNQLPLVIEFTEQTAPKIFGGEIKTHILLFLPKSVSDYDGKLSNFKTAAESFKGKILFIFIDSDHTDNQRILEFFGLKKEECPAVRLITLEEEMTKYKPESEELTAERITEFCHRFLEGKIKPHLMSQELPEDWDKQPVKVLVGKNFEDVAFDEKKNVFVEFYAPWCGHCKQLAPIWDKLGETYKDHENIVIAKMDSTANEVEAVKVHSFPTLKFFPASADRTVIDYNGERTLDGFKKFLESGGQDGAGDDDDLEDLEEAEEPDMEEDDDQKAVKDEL
Sequence of Sphingosine 1-phosphate receptor 3 (Q99500 whole entry): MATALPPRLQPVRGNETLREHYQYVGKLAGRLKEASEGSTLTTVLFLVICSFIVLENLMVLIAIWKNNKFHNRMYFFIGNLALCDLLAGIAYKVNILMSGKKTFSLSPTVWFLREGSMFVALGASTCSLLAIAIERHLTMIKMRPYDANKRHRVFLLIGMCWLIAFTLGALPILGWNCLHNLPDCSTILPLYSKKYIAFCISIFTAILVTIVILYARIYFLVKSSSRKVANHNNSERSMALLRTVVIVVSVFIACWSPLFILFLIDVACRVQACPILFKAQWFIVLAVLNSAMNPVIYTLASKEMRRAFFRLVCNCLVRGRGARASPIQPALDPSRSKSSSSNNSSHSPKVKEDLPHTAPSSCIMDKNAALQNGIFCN
Sequence of DNA dC->dU-editing enzyme APOBEC-3A (P31941 whole entry): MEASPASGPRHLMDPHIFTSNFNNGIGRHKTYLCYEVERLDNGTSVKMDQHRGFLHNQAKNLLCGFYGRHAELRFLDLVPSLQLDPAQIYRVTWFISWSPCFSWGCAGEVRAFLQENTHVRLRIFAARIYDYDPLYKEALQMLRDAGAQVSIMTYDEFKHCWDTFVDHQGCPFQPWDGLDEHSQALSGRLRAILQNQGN
Sequence of Sphingosine 1-phosphate receptor 5 (Q9H228 whole entry): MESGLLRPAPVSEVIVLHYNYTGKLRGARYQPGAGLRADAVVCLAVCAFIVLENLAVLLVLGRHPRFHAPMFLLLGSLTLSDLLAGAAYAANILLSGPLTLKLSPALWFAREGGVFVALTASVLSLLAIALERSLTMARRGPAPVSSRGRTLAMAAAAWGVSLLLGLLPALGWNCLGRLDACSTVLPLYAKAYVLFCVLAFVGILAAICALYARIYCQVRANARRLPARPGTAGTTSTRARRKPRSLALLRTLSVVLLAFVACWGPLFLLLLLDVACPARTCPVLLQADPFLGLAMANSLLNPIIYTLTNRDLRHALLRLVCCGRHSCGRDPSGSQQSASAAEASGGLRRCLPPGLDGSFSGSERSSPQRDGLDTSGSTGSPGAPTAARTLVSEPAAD
Sequence of DNA dC->dU-editing enzyme APOBEC-3G (Q9HC16 whole entry): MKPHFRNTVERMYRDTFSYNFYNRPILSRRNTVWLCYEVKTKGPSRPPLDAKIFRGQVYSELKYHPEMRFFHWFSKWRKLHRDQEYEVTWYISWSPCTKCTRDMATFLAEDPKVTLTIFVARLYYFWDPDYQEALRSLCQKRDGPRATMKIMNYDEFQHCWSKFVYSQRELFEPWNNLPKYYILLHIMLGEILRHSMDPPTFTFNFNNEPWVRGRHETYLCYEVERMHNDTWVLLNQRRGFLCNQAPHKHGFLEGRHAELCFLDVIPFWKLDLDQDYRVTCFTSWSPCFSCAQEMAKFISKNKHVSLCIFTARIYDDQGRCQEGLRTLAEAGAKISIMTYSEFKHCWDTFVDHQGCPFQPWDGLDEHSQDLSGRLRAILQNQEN
Sequence of Sphingosine 1-phosphate receptor 2 (O95136 whole entry): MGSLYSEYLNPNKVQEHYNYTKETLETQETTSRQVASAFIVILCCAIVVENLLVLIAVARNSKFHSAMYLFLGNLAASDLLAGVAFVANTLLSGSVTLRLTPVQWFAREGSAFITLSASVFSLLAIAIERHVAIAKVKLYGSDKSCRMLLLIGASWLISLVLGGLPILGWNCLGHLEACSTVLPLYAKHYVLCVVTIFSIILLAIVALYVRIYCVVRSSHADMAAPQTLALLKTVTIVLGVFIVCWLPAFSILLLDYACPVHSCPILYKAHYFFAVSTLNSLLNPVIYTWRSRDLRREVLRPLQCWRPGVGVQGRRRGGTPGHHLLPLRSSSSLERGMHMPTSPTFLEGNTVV
Sequence of Sphingosine 1-phosphate receptor 1 (P21453 whole entry): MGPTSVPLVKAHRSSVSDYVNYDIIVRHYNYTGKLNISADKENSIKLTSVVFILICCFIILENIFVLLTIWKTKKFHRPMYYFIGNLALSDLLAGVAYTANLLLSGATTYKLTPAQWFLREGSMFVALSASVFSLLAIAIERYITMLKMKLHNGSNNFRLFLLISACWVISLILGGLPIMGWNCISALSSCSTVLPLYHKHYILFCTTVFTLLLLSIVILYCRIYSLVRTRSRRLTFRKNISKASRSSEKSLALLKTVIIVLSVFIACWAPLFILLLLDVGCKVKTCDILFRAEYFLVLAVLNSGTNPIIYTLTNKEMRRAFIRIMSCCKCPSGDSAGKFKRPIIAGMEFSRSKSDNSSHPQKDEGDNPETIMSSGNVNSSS

Take `O=C(CSc1nnc2scc(-c3ccc(Cl)cc3)n12)N1CCOCC1`: the IC50 in experiment [1] is 28 µM (inactive); in experiment [2], > 99 µM (inactive).
In the case of `CN(C)C1(c2nnnn2CCOC(=O)Nc2ccc(Cl)cc2)CCCCC1`, the concentration at half-maximal activity (AC50) in experiment [3] is < 0.009 µM (active); in experiment [4], 0.009 µM (active).
Turning to `Cc1[nH]c(SCC(=O)N(C)c2ccccc2)nc(=O)c1C`, the CC50 in experiment [5], in [6] and in experiment [7] was > 100 µM (active) each time.
As for `CC/N=C1/S/C(=C/c2cc(C)n(-c3ccc(F)cc3F)c2C)C(=O)N1CC`, the EC50 in [8] was > 25 µM (inactive); in experiment [9], 0.816 µM (active); in [10], 6.18 µM (active); in experiment [11], > 25 µM (inactive).
On to `O=C(c1ccc(Cl)c(Cl)c1)N1CCN(c2ccnc3cc(Cl)ccc23)CC1`, for which the AC50 with NIH3T3 was 43.6 µM (active); in the experiment on Candida albicans [12], 45.2 µM (active); in the experiment on Candida albicans [13], 1.14 µM (active); in the experiment on Candida albicans [14], 0.726 µM (active); with Candida albicans [15], 0.515 µM (active).
Consider `Oc1ccccc1-c1nc(/C=C/c2ccccc2)no1`, for which the IC50 at Caspase-3 [16] is 6.9 µM (active); in experiment [17], 8.4 µM (active); on Caspase-3 [18] it was 3.6 µM (active); in [19], 2.12 µM (active); in [20] it was 2.54 µM (active); in experiment [21] it was 71 µM (active). For the same molecule, the IC50 in experiment [22] was 2.8 µM (active); in experiment [23], 2.71 µM (active).

The AC50 is the concentration at which the activity in the assay is half-maximal. What is called CC50 is the concentration at which the toxic effect on the cells reaches its halfway point. In general, EC50 refers to the concentration at which the effect is half-maximal.
